Tests used:
[1] = In vivo biodistribution of [^99mTc]Tc-carvedilol in healthy Swiss albino mice; settings: for [^99mTc]Tc-carvedilol percentages of injected dose per Gram organ: i.v. tail vein
From the text: For biodistribution and receptor occupancy studies, 24 healthy adult Swiss albino mice (12 males and 12 females, aged 10–12 weeks, weighing 25–30 g) were obtained from the Egyptian National Research Center. Mice outside the 25–30 g weight range were excluded to ensure consistency in the biodistribution outcomes. Prior to the study, animals were housed in groups of four with ad libitum access to food and water and underwent a 2-week acclimatization period. After this adaptation phase, the mice were randomly assigned to the study groups using the lot-drawing method.
Given ^99mTc’s physical half-life of approximately 6 h, shorter imaging and sampling intervals are generally preferred to maximize radioactive signal fidelity and minimize decay-related variability. At 24 h post-injection, the residual ^99mTc activity could fall below quantifiable thresholds, potentially compromising the precision of biodistribution data. To prevent this, all data collection was restricted to early post-injection intervals—specifically […]—when radioactivity levels remain within optimal detection ranges for gamma counting. By omitting the 24 h time point altogether, the study design ensured that the radiotracer signal would be robust enough to yield statistically reliable biodistribution profiles without being confounded by the isotope’s exponential decay. Additionally, prior pilot studies were conducted to empirically determine the time window during which the radiochemical integrity and quantification signal-to-noise ratio remained analytically valid. These informed the exclusion of late-phase sampling and reinforced confidence in the reliability of kinetic data collected within the defined 6 h observation window. Therefore, six mice were euthanized at each selected time point via standardized cervical dislocation performed by trained personnel in accordance with institutional animal care guidelines. The procedure followed the AVMA Guidelines for the Euthanasia of Animals ([Kirkwood, 2013]), ensuring it was rapid, humane, and reproducible. To ensure procedural consistency, all cervical dislocations were performed by the same experienced researcher, following pre-established protocols that involved correct animal positioning, anatomical landmark identification, and verification of death through cessation of heartbeat and respiration. Immediately postmortem, body weight was recorded, and blood was collected via cardiac puncture.
Organ harvesting included the collection of the heart, liver, lungs, kidneys, spleen, stomach, intestines, muscle (right leg), bone, and brain. Following dissection, tissues were gently rinsed with isotonic saline to remove residual blood, promptly weighed, kept at low temperatures, and immediately subjected to gamma counting to preserve radiochemical integrity and avoid post-collection decay artifacts. No storage or freezing was used to prevent degradation or leakage of [^99mTc]Tc-carvedilol. Sample processing occurred in a shielded, on-site laboratory adjacent to the dissection area, ensuring minimal delay—typically less than 2 to 3 minutes—between collection and measurement.
To ensure methodological rigor and reproducibility, both experimental and computational components of the study were supported by a structured statistical framework. A total of 24 healthy albino mice (12 males, 12 females), aged 10–12 weeks and weighing 25 ± 3 g, were selected based on uniform health status, age, and weight to minimize inter-animal variability. Animals were maintained under controlled laboratory conditions (12-h light/dark cycle, standardized humidity, and temperature) with unrestricted access to food and water. For biodistribution analysis, animals were randomly assigned to four experimental groups, each consisting of six mice, each representing a distinct post-injection time point (15, 30, 60, and 120 min). […]

[2] = In vitro stability in human serum at 37 °C; assay type: in vitro ADME; settings: at 24 h
Description: Aliquots (0.2 mL) were withdrawn at predefined intervals and analyzed using a paper chromatographic technique ([Rathmann et al., 2019]). Chromatographic separation was carried out using a Shimadzu system ([Shimadzu Corporation]) (Genzo Shimadzu Sr., Kyoto, Japan), comprising LC-9A pumps, a Rheodyne injector (Model 7125), and an ultraviolet spectrophotometer detector (SPD-6A, Shimadzu). The mobile phase consisted of acetonitrile and water (65:35) containing 0.1% trifluoroacetic acid, delivered at a flow rate of 1.0 mL/min. […] Separated fractions were collected for up to 12 min, and the radiochemical integrity was subsequently evaluated using a well-type NaI(Tl) ([Al Oraini, 2018]) detector linked to a single-channel analyzer.

In the case of `COc1ccccc1OCC[N]1CC(COc2cccc3[nH]c4ccccc4c23)[O][99Tc]12(=[O])[O]C(COc1cccc3[nH]c4ccccc4c13)C[N]2CCOc1ccccc1OC` (racemic) [[^99mTc]Tc-carvedilol], the “[^99mTc]Tc-carvedilol percentages of injected dose per Gram organ” value ([1]; Kidneys, 60 min post-injection) is reported as 24.392 ± 0.345 % ID/g organ, the “[^99mTc]Tc-carvedilol percentages of injected dose per Gram organ” value ([1]; Kidneys, 120 min post-injection) is reported as 29.284 ± 0.012 % ID/g organ and the “Residual [^99mTc]Tc-carvedilol percentages of injected dose per Gram in non-targeted organs” value ([1]; Liver row, 15 min post-injection) is reported as 92.740 ± 0.03 % ID/g. For the same compound, the “Residual [^99mTc]Tc-carvedilol percentages of injected dose per Gram in non-targeted organs” value ([1]; Liver row, 30 min post-injection) was 95.149 ± 0.01 % ID/g, the “Residual [^99mTc]Tc-carvedilol percentages of injected dose per Gram in non-targeted organs” value ([1]; Liver row, 120 min post-injection) was 93.895 ± 0.04 % ID/g and the “[^99mTc]Tc-carvedilol percentages of injected dose per Gram organ” value ([1]; Liver, 15 min post-injection) was 7.255 ± 0.023 % ID/g organ. The “[^99mTc]Tc-carvedilol percentages of injected dose per Gram organ” value ([1]; Liver, 30 min post-injection) was 4.841 ± 0.568 % ID/g organ, the “[^99mTc]Tc-carvedilol percentages of injected dose per Gram organ” value ([1]; Liver, 120 min post-injection) was 6.045 ± 1.020 % ID/g organ and the “Residual [^99mTc]Tc-carvedilol percentages of injected dose per Gram in non-targeted organs” value ([1]; Lung row, 15 min post-injection) was 98.710 ± 0.01 % ID/g. The “Residual [^99mTc]Tc-carvedilol percentages of injected dose per Gram in non-targeted organs” value ([1]; Lung row, 30 min post-injection) was 92.205 ± 0.01 % ID/g, the “Residual [^99mTc]Tc-carvedilol percentages of injected dose per Gram in non-targeted organs” value ([1]; Lung row, 60 min post-injection) was 95.410 ± 0.00 % ID/g and the “Residual [^99mTc]Tc-carvedilol percentages of injected dose per Gram in non-targeted organs” value ([1]; Lung row, 120 min post-injection) was 95.371 ± 0.04 % ID/g. For the same compound, the “[^99mTc]Tc-carvedilol percentages of injected dose per Gram organ” value ([1]; Lung, 15 min post-injection) was 1.290 ± 0.232 % ID/g organ, the “[^99mTc]Tc-carvedilol percentages of injected dose per Gram organ” value ([1]; Lung, 30 min post-injection) was 7.795 ± 0.060 % ID/g organ and the “[^99mTc]Tc-carvedilol percentages of injected dose per Gram organ” value ([1]; Lung, 60 min post-injection) was 4.590 ± 0.000 % ID/g organ. The “[^99mTc]Tc-carvedilol percentages of injected dose per Gram organ” value ([1]; Lung, 120 min post-injection) was 4.579 ± 0.111 % ID/g organ, the “Residual [^99mTc]Tc-carvedilol percentages of injected dose per Gram in non-targeted organs” value ([1]; Muscle row, 15 min post-injection) was 99.309 ± 0.02 % ID/g and the “Residual [^99mTc]Tc-carvedilol percentages of injected dose per Gram in non-targeted organs” value ([1]; Muscle row, 30 min post-injection) was 99.727 ± 0.01 % ID/g. The “Residual [^99mTc]Tc-carvedilol percentages of injected dose per Gram in non-targeted organs” value ([1]; Muscle row, 60 min post-injection) was 99.321 ± 0.02 % ID/g, the “Residual [^99mTc]Tc-carvedilol percentages of injected dose per Gram in non-targeted organs” value ([1]; Muscle row, 120 min post-injection) was 98.449 ± 0.03 % ID/g and the “[^99mTc]Tc-carvedilol percentages of injected dose per Gram organ” value ([1]; Muscle, 15 min post-injection) was 0.671 ± 0.195 % ID/g organ. The “[^99mTc]Tc-carvedilol percentages of injected dose per Gram organ” value ([1]; Muscle, 30 min post-injection) was 0.263 ± 0.215 % ID/g organ, the “[^99mTc]Tc-carvedilol percentages of injected dose per Gram organ” value ([1]; Muscle, 60 min post-injection) was 0.659 ± 0.217 % ID/g organ and the “[^99mTc]Tc-carvedilol percentages of injected dose per Gram organ” value ([1]; Muscle, 120 min post-injection) was 1.521 ± 0.201 % ID/g organ. The “Residual [^99mTc]Tc-carvedilol percentages of injected dose per Gram in non-targeted organs” value ([1]; Spleen row, 15 min post-injection) was 98.118 ± 0.02 % ID/g, the “Residual [^99mTc]Tc-carvedilol percentages of injected dose per Gram in non-targeted organs” value ([1]; Spleen row, 30 min post-injection) was 95.816 ± 0.01 % ID/g and the “Residual [^99mTc]Tc-carvedilol percentages of injected dose per Gram in non-targeted organs” value ([1]; Spleen row, 60 min post-injection) was 93.319 ± 0.05 % ID/g. The “Residual [^99mTc]Tc-carvedilol percentages of injected dose per Gram in non-targeted organs” value ([1]; Spleen row, 120 min post-injection) was 97.701 ± 0.02 % ID/g, the “[^99mTc]Tc-carvedilol percentages of injected dose per Gram organ” value ([1]; Spleen, 15 min post-injection) was 1.852 ± 0.151 % ID/g organ and the “[^99mTc]Tc-carvedilol percentages of injected dose per Gram organ” value ([1]; Spleen, 30 min post-injection) was 4.174 ± 0.019 % ID/g organ. For the same compound, the “[^99mTc]Tc-carvedilol percentages of injected dose per Gram organ” value ([1]; Spleen, 60 min post-injection) was 6.631 ± 0.019 % ID/g organ, the “[^99mTc]Tc-carvedilol percentages of injected dose per Gram organ” value ([1]; Spleen, 120 min post-injection) was 2.279 ± 0.126 % ID/g organ and the “Residual [^99mTc]Tc-carvedilol percentages of injected dose per Gram in non-targeted organs” value ([1]; Stomach row, 15 min post-injection) was 98.807 ± 0.01 % ID/g. The “Residual [^99mTc]Tc-carvedilol percentages of injected dose per Gram in non-targeted organs” value ([1]; Stomach row, 30 min post-injection) was 98.433 ± 0.04 % ID/g, the “Residual [^99mTc]Tc-carvedilol percentages of injected dose per Gram in non-targeted organs” value ([1]; Stomach row, 60 min post-injection) was 95.706 ± 0.03 % ID/g and the “Residual [^99mTc]Tc-carvedilol percentages of injected dose per Gram in non-targeted organs” value ([1]; Stomach row, 120 min post-injection) was 97.717 ± 0.06 % ID/g. For the same compound, the “[^99mTc]Tc-carvedilol percentages of injected dose per Gram organ” value ([1]; Stomach, 15 min post-injection) was 1.193 ± 0.201 % ID/g organ, the “[^99mTc]Tc-carvedilol percentages of injected dose per Gram organ” value ([1]; Stomach, 30 min post-injection) was 1.524 ± 0.259 % ID/g organ and the “[^99mTc]Tc-carvedilol percentages of injected dose per Gram organ” value ([1]; Stomach, 60 min post-injection) was 4.263 ± 0.259 % ID/g organ. For the same compound, the “[^99mTc]Tc-carvedilol percentages of injected dose per Gram organ” value ([1]; Stomach, 120 min post-injection) was 2.239 ± 0.065 % ID/g organ and the serum stability [2] was greater than 92%.

From paper PMC12280724 (Frontiers in Pharmacology, 2025)
